Measured values from article PMC12641998, “Development of Cell-Permeable Adenylosuccinate Lyase Inhibitor” (Methods and Protocols, 2025).
Entries after “also recorded” stand apart in the source; their conditions may differ. Each block holds one compound with its values, some of them ahead of it.

Tests used:
ADSL in HeLa cells = assay: Cellular SAICAR, AICAR, S-AMP and AMP levels by HILIC-HPLC-MS; type: cell-based, human; conditions: 12 h, triethylammonium salt form
Protocol: Cellular experiments and the measurement of nucleotides were carried out as we previously reported. […] The media were removed, and cells were washed five times with Dulbecco’s phosphate-buffered saline. Cells were lysed in ice-cold extraction solvent (95% methanol with 10 mM triethylammonium bicarbonate). The lysates were transferred to a centrifuge tube. Debris was removed by centrifugation at 150,000× g for 10 min at 4 °C. The supernatant was passed through Amicon Ultracel centrifugal filters (molecular weight cut-off 3 kDa). The filtrates were dried in vacuum and dissolved in 0.10 mL of extraction solvent. A 10 μL portion of this solution was subjected to HILIC-MS as we previously described. To measure cell proliferation, cells were detached by trypsin-EDTA and counted using a Moxi-Z cell counter as we previously described.
Next, we asked whether 1 inhibits ADSL in mammalian cells. […] Cells were lysed, and the amounts of SAICAR and S-AMP were measured by HILIC-HPLC-MS as we previously reported (Figure 6).

[1] = Permeability through an in vitro model of blood-brain barrier; type: in vitro ADME; conditions: Figure S7, n = 3
Source text: (1 picture or pasted object on this page, not shown here)

recombinant human ADSL [2] = molecular target: T1, recombinant human ADSL (Homo sapiens, UniProt P30566); assay: ADSL enzyme activity assay (A280); type: biochemical; conditions: for effect on ADSL in subsequent tests after the screen: follow-up of screening hits
T1 construct: made in house
T1 sequence (P30566 1-484): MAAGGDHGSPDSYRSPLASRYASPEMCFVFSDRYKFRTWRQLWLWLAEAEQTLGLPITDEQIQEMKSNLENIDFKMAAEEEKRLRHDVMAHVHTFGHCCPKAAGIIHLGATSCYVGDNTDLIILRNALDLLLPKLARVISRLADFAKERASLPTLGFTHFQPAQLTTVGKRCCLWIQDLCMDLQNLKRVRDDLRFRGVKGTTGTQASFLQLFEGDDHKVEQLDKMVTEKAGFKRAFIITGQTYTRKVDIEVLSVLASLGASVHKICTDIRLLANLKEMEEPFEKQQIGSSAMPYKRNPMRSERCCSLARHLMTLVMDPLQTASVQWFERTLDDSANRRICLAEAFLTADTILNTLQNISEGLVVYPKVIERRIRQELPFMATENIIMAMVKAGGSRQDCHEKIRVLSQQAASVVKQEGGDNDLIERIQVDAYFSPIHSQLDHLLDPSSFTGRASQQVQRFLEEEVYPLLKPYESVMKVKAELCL
Protocol: ADSL activity assays were performed as described in the literature. In brief, 0.60 mL solution containing recombinant human ADSL (0–2 μM), the test compound, 20 mM HEPES, pH 7.9, 50 mM KCl, 1 mM MgCl2, 1 mM DTT, and 1% DMSO was placed in a semi-micro quartz cuvette. This solution was kept at 37 °C for 30 min. The reaction was initiated by the addition of S-AMP or SAICAR to a final concentration of 0–2 mM (typically 0.20 mM). A280 was monitored every 5 s for 1 h using a Beckman DU650 spectrophotometer.

recombinant human ADSL [3] = molecular target: T1, recombinant human ADSL; assay: Screening of LOPAC 1280 compounds for ADSL inhibitors; type: biochemical; conditions: 2 µM compound, 0.2 µM ADSL, 0.2 mM S-AMP
Protocol: In each well of UV-transparent 384-well plates, a 45 μL solution containing 0.20 μM recombinant human ADSL and 2 μM screening compounds from the LOPAC 1280 library was placed. The reaction buffer contained 20 mM HEPES, pH 7.9, 50 mM KCl, 1 mM MgCl2, 1 mM DTT, and 1% (v/v) DMSO. Following a 30 min-long incubation at ambient temperature, the reaction was initiated by the addition of S-AMP (final: 0.20 mM). The reaction was monitored by measuring A280 every 10 min for 4 h at 37 °C.
To identify ADSL inhibitors, the effects of LOPAC® 1280 library compounds on the activity of recombinant human ADSL were measured (Figure 2A). […] ADSL activity was monitored by measuring changes in A280 for 4 h at 37 °C. Compounds inhibiting ADSL activity by more than three standard deviations (Z-score < −3, Figure 2A) were counted as hits.

mechanism of ADSL inhibition (recombinant human ADSL [2]; Lineweaver-Burk plot): competitive
Ki (recombinant human ADSL [2]; Lineweaver-Burk plot, read-out: Ki, inhibition of ADSL): 240 nM
IC50 (recombinant human ADSL [2]; S-AMP as substrate (0.2 mM), read-out: IC50, inhibition of ADSL): 1400 nM
screening outcome (hit: Z-score < −3) (recombinant human ADSL [3]): might be an inhibitor of ADSL
SMILES: O=C(Nc1cc(C(=O)Nc2ccc(S(=O)(=O)O)cc2S(=O)(=O)O)cc(C(=O)Nc2ccc(S(=O)(=O)O)cc2S(=O)(=O)O)c1)Nc1cc(C(=O)Nc2ccc(S(=O)(=O)O)cc2S(=O)(=O)O)cc(C(=O)Nc2ccc(S(=O)(=O)O)cc2S(=O)(=O)O)c1 [NF-449]

effect on ADSL in subsequent tests after the screen (recombinant human ADSL [2]): did not inhibit ADSL
screening outcome (hit: Z-score < −3) (recombinant human ADSL [3]): potential ADSL inhibitors
SMILES: CCCCc1oc2ccccc2c1C(=O)c1cc(I)c(OCCN(CC)CC)c(I)c1 [amiodarone]

Further lines, the compound ahead of its results:

SMILES: O=C(Nc1ccccc1S(=O)(=O)O)c1cccc(C(=O)Nc2ccccc2S(=O)(=O)O)c1 [Compound 1, 2,2’-(1,3-phenylenebis(carbonylimino))bisbenzenesulfonate]
effect on the cellular level of S-AMP and AMP (ADSL in HeLa cells): less effect
increase of cellular level of SAICAR (ADSL in HeLa cells): approximately 2.5 fold
level of AICAR, lower by (ADSL in HeLa cells): approximately 30%
EC50 (ADSL in HeLa cells; Homo sapiens, read-out: EC50, increase of cellular level of SAICAR): 400 nM
permeability through blood–brain barrier in vitro [1]: limited permeability; also recorded: comparable to the low -permeability standard

SMILES: O=C(Nc1ccccc1)c1cccc(C(=O)Nc2ccccc2)c1 [Compound 3, N, N’-diphenylisopthalamide]
inhibition of ADSL (recombinant human ADSL [2]; concentrations tested up to 30 μM): did not inhibit ADSL

SMILES: N=C(NO)NCCC[C@H](N)C(=O)O [N^ω-hydroxyl-L-arginine]
effect on ADSL in subsequent tests after the screen (recombinant human ADSL [2]): ADSL became aggregated
screening outcome (hit: Z-score < −3) (recombinant human ADSL [3]): potential ADSL inhibitors
